{"source": "patent US20230027620A1", "about": "“PENTAPEPTIDE AND METHODS OF USE THEREOF” (THE BOARD OF TRUSTEES OF THE UNIVERSITY OF ILLINOIS, priority 2019, published 2023)", "key": {"pERK1/2": {"test_system": "pERK1/2", "experiment": "Western blot for pERK1/2 after wounding", "assay_type": "cell-based", "conditions": "wounded cells, compared with wounding alone", "procedure": "Western Blot. Western blot was performed following standard methods. Protein lysate (20 μg) was boiled in NuPAGE™ LDS sample buffer (Invitrogen, Carlsbad, Calif.) for 10 minutes and then subjected to electrophoresis on 12% NuPAGE™ Bis-Tris gels (Invitrogen, Carlsbad, Calif.), followed by transfer to nitrocellulose membranes (Amersham Protran, GE Healthcare, Pittsburgh, Pa.). Membranes were then blocked with Tris-buffered saline containing 3% nonfat dry milk for 1 hour and incubated with primary antibody against pERK1/2 (Cell Signaling, Danver, Mass.) (1:1000) overnight at 4° C. After washing in 0.05% Tris-buffered saline containing 0.05% polysorbate 20, membranes were then incubated for 1 hour with goat anti-rabbit-HRP (BD Biosciences, San Jose, Calif.) (1:2000) as the secondary antibody. The membranes were developed using X-ray film and ECL Pro solution (PerkinElmer, Waltham, Mass.). Beta-actin was used as an internal control.\nThe level of activation/phosphorylation of ERK with and without wounding and with and without Hst5 application were investigated to determine whether the cellular signaling pathways underpinning the pro-migratory effects of Hst5 were similar to those of Hst1 in other epithelial cell types. Wounding causes an increased in phosphorylated form of ERK1/2 (p-ERK1/2). […]"}, "HCLE cells": {"test_system": "HCLE cells", "experiment": "In vitro scratch assay, HCLE cells", "assay_type": "cell-based, Human", "procedure": "Cell Culture. Human corneal limbal epithelial (HCLE) cells were cultured in keratinocyte-serum free medium (K-SFM; ThermoScientific, Waltham, Mass.) supplemented with 0.2 ng/mL rhEGF (ThermoScientific, Waltham, Mass.), bovine pituitary extract (ThermoScientific, Waltham, Mass.) and 1% Amphotericin B (ThermoScientific, Waltham, Mass.). Standard cell culture conditions (37° C., 5% CO2, >95% humidity) were used during routine passages. The culture medium was replaced every 48 hours after seeding.\nIn Vitro Scratch Assay. HCE, HCLE, HELA and MCF-7 cells were cultured in a 24-well plate at 2.5×10^5 (cells/well) seeding density, and were grown to confluence on a 24-well plate. Subsequently, a straight-line scratch mark was made with a sterile P200 pipette tip. […] The wound area at each time-point was measured using Image J software (Image J 1.47v, NIH, Thornwood, Bethesda, Md.). Relative wound closure was calculated by dividing the closure of the treated wound by that of the untreated wound. […]\n(§1) A cell sprouting assay using HCE cells embedded as a spot in growth factor reduced solubilized basement membrane sold under the tradename MATRIGEL® (Corning Life Sciences, Tewksbury, Mass.) was used to determine if HST5 could promote epithelial cell migration. […] Time-lapse microscopy was performed and wound areas were analyzed at different time points. […]"}, "[1]": {"test_system": "Human corneal epithelial (HCE) cells", "experiment": "In vitro scratch assay, HCE cells", "assay_type": "cell-based", "conditions": "compared with scrambled peptide control (SP1)", "procedure": "Human corneal epithelial (HCE) cells were cultured in a Medium Essential Media (MEM; Gibco, Life Technologies, Carlsbad, Calif.). HeLa cells were maintained in Dulbecco's Modified Eagle's Medium (DMEM; Life Technologies, Grand Island, N.Y.). Both media were supplemented with 10% fetal bovine serum (Gibco, Life Technologies, Carlsbad, Calif.) and 1% penicillin-streptomycin (Gibco, Life Technologies, Carlsbad, Calif.). […]\nIn Vitro Scratch Assay. […] The wound area at each time-point was measured using Image J software (Image J 1.47v, NIH, Thornwood, Bethesda, Md.). Relative wound closure was calculated by dividing the closure of the treated wound by that of the untreated wound. […]\nas §1\nWound closure rates of the three salt forms were also analyzed in accordance with the methods disclosed herein. In particular, human corneal epithelial cells were scratched using standardized scratch assays and rates of wound healing were measured after application of the acetic acid, hydrochloride and trifluoroacetate salt forms of SHRGY (SEQ ID NO:2)."}, "[2]": {"test_system": "epithelial cell migration", "experiment": "In vitro scratch assay, truncation and scrambled peptide series (FIG. 1; cell line not given)", "assay_type": "cell-based", "conditions": "80 μM; FIG. 1; vs untreated control", "procedure": "Peptides were tested for efficacy in accelerating scratch closure rates. Negative controls included untreated and multiple scrambled peptide (SP) controls. All peptides were tested at 80 μM concentration. All experiments were performed in triplicate with three technical replicates for each experiment. Statistical significance was determined by one-way ANOYA with Dunnett's post-hoc test. *p<0.05; **p<0.01; ***p<0.001. Relative closure=(% closure of treated sample)/(% closure of Untreated control).\nIn Vitro Scratch Assay. HCE, HCLE, HELA and MCF-7 cells were cultured in a 24-well plate at 2.5×10^5 (cells/well) seeding density, and were grown to confluence on a 24-well plate. Subsequently, a straight-line scratch mark was made with a sterile P200 pipette tip. The cells were then washed twice with phosphate-buffered saline (PBS) to remove cellular debris. Wounded areas were then treated with the peptides provided in Table 5 at various concentrations in standard medium with reduced serum conditions (0.5% FBS in MEM medium (HCE), growth factor-free K-SFM media (HCLE), 1% FBS in DMEM medium (HeLa) and 0.5% FBS in RPMI 1640 medium (MCF-7)). Scratches were photographed microscopically at 4× magnification (Image Express Micro, Molecular Devices, San Jose, Calif.) every hour over the course of the experiment. The wound area at each time-point was measured using Image J software (Image J 1.47v, NIH, Thornwood, Bethesda, Md.). Relative wound closure was calculated by dividing the closure of the treated wound by that of the untreated wound. For all the experiments including truncated histatin-5, a final concentration of 80 μM was used. PD98059 (Calbiochem, San Diego, Calif.) at final concentration of 50 μM was used as a specific inhibitor of MEK. PD98059 was added to cell cultures at the same time as histatin peptides.\nTo identify the residues of Hst5 required for epithelial cell migration, serial truncation experiments were performed, progressively deleting residues in Hst5. […] All peptides were tested at 80 μM. […] Thus, the SHRGY (SEQ ID NO:2) sequence is necessary and sufficient to promote epithelial migration rates in in vitro scratch assays."}}, "data": [{"sequence": "DSHAKRHHGYKRKFHEKHHSHRGY [Hst5]", "values": [{"measurement": "pERK1/2 levels (Western blot)", "setting": "pERK1/2", "value": "further increased"}, {"measurement": "rates of in vitro scratch assay closure", "setting": "HCLE cells; 20, 50, 80 and 100 μM, compared with untreated control", "value": "dose-dependent increase in rates of in vitro scratch assay closure"}, {"measurement": "concentration of most significant increase in scratch closure rates", "setting": "HCLE cells; tested at 20, 50, 80 and 100 μM", "value": 50, "unit": "µM"}, {"measurement": "concentration of statistically significant peak effect on scratch closure", "setting": "[1]", "value": 80, "unit": "µM"}, {"measurement": "scratch (wound) closure rates, relative closure", "setting": "[2]", "value": "significant increases in scratch closure rates"}]}]}
